Test results from patent US8680012B2, “4-phenyl-pyrane-3,5-diones,4-phenyl-thiopyrane-3,6-diones and cyclohexanetriones as novel herbicides” (Syngenta Crop Protection LLC, priority 2006, dated 2014).

How the values were obtained:
Type in all cases: in vivo
[1] = system: Alopecurus myosuroides (ALOMY); assay: Example B pre-emergence herbicidal activity, glasshouse pot test; details: 312 h, evaluated after 13 days, read-out: Pre-emergence activity ALOMY (100=total damage to plant; 0=no damage to plant); for pest or weed control at 1000 g/ha: rate 1000 g/ha; for pest or weed control at 250 g/ha: rate 250 g/ha
In short: (§1)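 Compound sprayed in acetone/water (50:50) plus 0.5% Tween 20 onto potted soil one day post-sowing, or onto seedlings after 8 days. Scored 0–100 for damage after 13 days.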

[2] = system: Amaranthus retroflexus (AMARE); assay: as above; details: 312 h, evaluated after 13 days, read-out: Pre-emergence activity AMARE (100=total damage to plant; 0=no damage to plant); for pest or weed control at 1000 g/ha: rate 1000 g/ha; for pest or weed control at 250 g/ha: rate 250 g/ha
In short: as §1

[3] = system: Avena fatua (AVEFA); assay: as above; details: 312 h, evaluated after 13 days, read-out: Pre-emergence activity AVEFA (100=total damage to plant; 0=no damage to plant); for pest or weed control at 1000 g/ha: rate 1000 g/ha; for pest or weed control at 250 g/ha: rate 250 g/ha
In short: as §1

[4] = system: Echinochloa crus-galli (ECHCG); assay: as above; details: 312 h, evaluated after 13 days, read-out: Pre-emergence activity ECHCG (100=total damage to plant; 0=no damage to plant); for pest or weed control at 1000 g/ha: rate 1000 g/ha; for pest or weed control at 250 g/ha: rate 250 g/ha
In short: as §1

[5] = system: Setaria faberi (SETFA); assay: as above; details: 312 h, evaluated after 13 days, read-out: Pre-emergence activity SETFA (100=total damage to plant; 0=no damage to plant); for pest or weed control at 1000 g/ha: rate 1000 g/ha; for pest or weed control at 250 g/ha: rate 250 g/ha
In short: as §1

[6] = system: Solanum nigrum (SOLNI); assay: as above; details: 312 h, evaluated after 13 days, read-out: Pre-emergence activity SOLNI (100=total damage to plant; 0=no damage to plant); for pest or weed control at 1000 g/ha: rate 1000 g/ha; for pest or weed control at 250 g/ha: rate 250 g/ha
In short: as §1

[7] = system: Alopecurus myosuroides (ALOMY); assay: Example B post-emergence herbicidal activity, glasshouse pot test; details: 312 h, evaluated after 13 days, read-out: Post-emergence activity ALOMY (100=total damage to plant; 0=no damage to plant); for pest or weed control at 1000 g/ha: rate 1000 g/ha; for pest or weed control at 250 g/ha: rate 250 g/ha
In short: as §1

[8] = system: Amaranthus retroflexus (AMARE); assay: as above; details: 312 h, evaluated after 13 days, read-out: Post-emergence activity AMARE (100=total damage to plant; 0=no damage to plant); for pest or weed control at 1000 g/ha: rate 1000 g/ha; for pest or weed control at 250 g/ha: rate 250 g/ha
In short: as §1

[9] = system: Avena fatua (AVEFA); assay: as above; details: 312 h, evaluated after 13 days, read-out: Post-emergence activity AVEFA (100=total damage to plant; 0=no damage to plant); for pest or weed control at 1000 g/ha: rate 1000 g/ha; for pest or weed control at 250 g/ha: rate 250 g/ha
In short: as §1

[10] = system: Echinochloa crus-galli (ECHCG); assay: as above; details: 312 h, evaluated after 13 days, read-out: Post-emergence activity ECHCG (100=total damage to plant; 0=no damage to plant); for pest or weed control at 1000 g/ha: rate 1000 g/ha; for pest or weed control at 250 g/ha: rate 250 g/ha
In short: as §1

[11] = system: Setaria faberi (SETFA); assay: as above; details: 312 h, evaluated after 13 days, read-out: Post-emergence activity SETFA (100=total damage to plant; 0=no damage to plant); for pest or weed control at 1000 g/ha: rate 1000 g/ha; for pest or weed control at 250 g/ha: rate 250 g/ha
In short: as §1

[12] = system: Solanum nigrum (SOLNI); assay: as above; details: 312 h, evaluated after 13 days, read-out: Post-emergence activity SOLNI (100=total damage to plant; 0=no damage to plant); for pest or weed control at 1000 g/ha: rate 1000 g/ha; for pest or weed control at 250 g/ha: rate 250 g/ha
In short: as §1

SMILES	pest or weed control at 1000 g/ha [1] [%]	pest or weed control at 1000 g/ha [2] [%]	pest or weed control at 1000 g/ha [3] [%]	pest or weed control at 1000 g/ha [4] [%]	pest or weed control at 1000 g/ha [5] [%]	pest or weed control at 1000 g/ha [6] [%]	pest or weed control at 1000 g/ha [7] [%]	pest or weed control at 1000 g/ha [8] [%]	pest or weed control at 1000 g/ha [9] [%]	pest or weed control at 1000 g/ha [10] [%]	pest or weed control at 1000 g/ha [11] [%]	pest or weed control at 1000 g/ha [12] [%]	other results
Cc1ccc(-c2ccc(Cl)nc2)cc1C1=C(O)C(C)(C)OC(C)(C)C1=O [Compound A-54]	70	20	80	100	90	0	80	0	50	90	80	0	
Cc1ccc(-c2ccc(Oc3ccccc3)cc2)cc1C1=C(O)C(C)(C)OC(C)(C)C1=O [Compound A-16]	30	0	20	100	100	0	30	40	30	100	100	10	
CCc1ccc(-c2ccc(Cl)nc2Cl)cc1C1=C(O)C(C)(C)C(=O)C(C)(C)C1=O [Compound B-29]													pest or weed control at 250 g/ha [1]: 0%; pest or weed control at 250 g/ha [2]: 0%; pest or weed control at 250 g/ha [3]: 0%; pest or weed control at 250 g/ha [4]: 20%; pest or weed control at 250 g/ha [5]: 30%; pest or weed control at 250 g/ha [6]: 0%; pest or weed control at 250 g/ha [7]: 30%; pest or weed control at 250 g/ha [8]: 20%; pest or weed control at 250 g/ha [9]: 0%; pest or weed control at 250 g/ha [10]: 100%; pest or weed control at 250 g/ha [11]: 80%; pest or weed control at 250 g/ha [12]: 30%
CCc1ccc(-c2cnc(Cl)cc2C)cc1C1=C(O)C(C)(C)C(=O)C(C)(C)C1=O [Compound B-28]													pest or weed control at 250 g/ha [1]: 0%; pest or weed control at 250 g/ha [2]: 0%; pest or weed control at 250 g/ha [3]: 0%; pest or weed control at 250 g/ha [4]: 0%; pest or weed control at 250 g/ha [5]: 0%; pest or weed control at 250 g/ha [6]: 0%; pest or weed control at 250 g/ha [7]: 0%; pest or weed control at 250 g/ha [8]: 0%; pest or weed control at 250 g/ha [9]: 0%; pest or weed control at 250 g/ha [10]: 70%; pest or weed control at 250 g/ha [11]: 70%; pest or weed control at 250 g/ha [12]: 0%
Cc1ccc(-c2cc(F)c(F)c(F)c2)cc1C1=C(O)C(C)(C)OC(C)(C)C1=O [Compound A-31]	50	0	0	100	100	0	100	0	90	100	100	60	
CCC(=O)OC1=C(c2cc(-c3ccc(Cl)cc3)ccc2CC)C(=O)C(C)(C)OC1(C)C [Compound D-8]	40	0	0	90	90	0	60	0	10	100	100	0	
CCc1ccc(-c2ccc(Cl)cc2)cc1C1=C(OC(=O)C2CC2)C(C)(C)OC(C)(C)C1=O [Compound D-10]	50	0	0	100	100	0	90	20	20	100	100	0	
